Reference: US20250197387A1, “BCL-XL DEGRADERS AND USES THEREOF” (Kymera Therapeutics, Inc., priority 2021, published 2025)

Legend:
BCL-XL [1] = target: T1, BCL-XL (Homo sapiens, UniProt Q07817); assay: BCL-XL degradation assay, western blot in MOLT-4 cells, 16 h; assay type: cell-based; conditions: western blot, MOLT-4 cells, 16 h; for Dmax: read-out: Bcl-xL WB in MOLT-4 degradation 16 h: Average Dmax %; for DC50: read-out: Bcl-xL WB in MOLT-4 degradation 16 h: Mean external-Abs DC50
T1 construct: endogenous in cells; host or cells: MOLT-4
Procedure: Compounds treatment: compounds were reconstituted in DMSO to make a stock concentration of 10 mM. MOLT-4 cells were maintained in RPMI-1640+10% FBS+1% Penicillin-Streptomycin. Cells were seeded into 6-well plates in 2 mL at the seeding density of 2e6 cells/mL. Compounds were added to the cells to a final concentration ranging 0.02-10 μM. After 16 hr incubation at 37° C., in a CO2 incubator, cells were collected in an Eppendorf tube and centrifuged at 200×g for 5 minutes, the supernatant removed and pellets washed with ice-cold PBS, centrifuged and supernatant removed again. Then. 50 μl of pre-chilled RIPA lysis buffer (Boston BioProducts. BP-115D) with protease and phosphatase inhibitors (Roche Applied Science. #04906837001 and #04693116001) was added into cell pellet to lyze the cells for 20 minutes under 4° C. Cell lysates were spin at 13000 rpm for 10 minutes. Supernatants were collected and protein concentration was measured by BCA assay kit (Solarbio. PC0020-500) following the manufacturer's protocol. Samples' final protein concentration was adjusted to 3.75 μg/uL with the RIPA lysis buffer based on BCA assay results and 4× loading buffer (Invitrogen. NP0007) was added into the samples and samples were heated to 85° C., for 10 min and then let cool at RT. Samples were centrifuged at 13000 rpm for 10 min and then loaded into a 26-well NuPAGER. Novex 4-12% Bis-Tris Midi Gel (Invitrogen. WG1403BOX) and run in NuPAGER MOPS SDS Running Buffer (Invitrogen. NP0001) for 180 minutes at 70 V into a XCell4 SureLock™ Midi-Cell Runner (Invitrogen. WR0100). Gel were transferred using the Invitrogen iBlot gel transfer device (Invitrogen. IB21001) and the nitrocellulose transfer stacks (Invitrogen, IB23001) with Program PO for 9 minutes. The membrane was then blocked with 5% bovin serum albumin for 1 hr at RT, then incubated with primary antibodies diluted in blocking buffer (LI-COR. 927-60001) and shake at 4° C., overnight. The primary antibodies were anti-BCL-xL antibody (CST. 2762:1:1000), anti-beta-actin (CST. 3700; 1:5000) and anti-GAPDH (CST. 97166:1:5000). Membranes were then washed three times with PBST for 15 minutes at RT. Secondary antibodies IR-Dye 680 CW Goat anti Mouse IgG (LI-COR. 926-68070) and IR-Dye 800 CW Goat anti Rabbit IgG (LI-COR. 926-32211) were diluted at a ratio of 1:10000 into PBST and membranes incubated for 1 hour at RT. Membranes were then washed three times with PBST for 15 minutes at RT. The western blot images were obtained using Odyssey Imaging System and quantified using Image Studio Lite Ver 5.2 software.
(§1) The letter codes for BCL-XL DC50 include: A (<0.01 μM); B (0.01-0.1 μM); C (>[…]); D (>0.5-1.0 μM); and E (>1.0 μM). The letter codes for Dmax % include A (>75%); B (50 to 75%); C (<50%).

BCL-XL [2] = target: T1, BCL-XL; assay: Bcl-xL ELISA degradation in MOLT-4 cells, 6 h; assay type: cell-based; conditions: for DC50: read-out: Bcl-xL ELISA in MOLT-4 degradation 6 h: Mean external-Abs DC50
Procedure: as §1

T1 sequence (Q07817 whole entry): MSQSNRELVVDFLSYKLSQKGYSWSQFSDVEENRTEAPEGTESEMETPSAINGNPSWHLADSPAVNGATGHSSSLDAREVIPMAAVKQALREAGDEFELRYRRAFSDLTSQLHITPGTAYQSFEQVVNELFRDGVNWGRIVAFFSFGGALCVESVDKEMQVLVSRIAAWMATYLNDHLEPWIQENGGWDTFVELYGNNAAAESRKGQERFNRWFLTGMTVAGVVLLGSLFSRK

Row | SMILES | Dmax (BCL-XL [1]) [%] | DC50 (BCL-XL [1]) [nM] | Dmax (BCL-XL [2]) [%] | DC50 (BCL-XL [2]) [nM]
1 | Cc1ncsc1-c1ccc(CNC(=O)[C@@H]2C[C@@H](O)CN2C(=O)[C@@H](NC(=O)C2(F)CC2)C(C)(C)C)c(O[C@H]2C[C@H](C(=O)N3CCN(CC[C@H](CSc4ccccc4)Nc4ccc(S(=O)(=O)NC(=O)c5ccc(N6CCN(CC7=C(c8ccc(Cl)cc8)CCC(C)(C)C7)CC6)cc5)cc4S(=O)(=O)C(F)(F)F)CC3)C2)c1 [I-91] | < 50 | > 1000 | – | –
2 | Cc1ncsc1-c1ccc([C@H](C)NC(=O)[C@@H]2C[C@@H](O)CN2C(=O)[C@@H](NC(=O)N2CCC3(CCC(C(=O)N4CCN(CC[C@H](CSc5ccccc5)Nc5ccc(S(=O)(=O)NC(=O)c6ccc(N7CCN(CC8=C(c9ccc(Cl)cc9)CCC(C)(C)C8)CC7)cc6)cc5S(=O)(=O)C(F)(F)F)CC4)CC3)CC2)C(C)(C)C)cc1 [I-126] | < 50 | > 1000 | – | –
3 | Cc1ncsc1-c1ccc(CNC(=O)[C@@H]2C[C@@H](O)CN2C(=O)[C@@H](NC(=O)C2(F)CC2)C(C)(C)C)c(OCCCC(=O)N(C)CC#Cc2cccc(F)c2OCCCc2sc(N3CCc4cccc(C(=O)Nc5nc6ccccc6s5)c4C3)nc2C(=O)O)c1 [I-18] | 50 to 75 | > 1000 | – | –
4 | Cc1ncsc1-c1ccc([C@H](C)NC(=O)[C@@H]2C[C@@H](O)CN2C(=O)[C@@H](NC(=O)CCCS(=O)(=O)NC(=O)c2nc(N3CCc4cccc(C(=O)Nc5nc6ccccc6s5)c4C3)ccc2-c2cnn(CC34CC5CC(CC(C5)C3)C4)c2C)C(C)(C)C)cc1 [I-117] | > 75 | < 10 | – | –
5 | C#Cc1ccc(CNC(=O)[C@@H]2C[C@@H](O)CN2C(=O)[C@@H](NC(=O)C2(F)CC2)C(C)(C)C)c(OCC(=O)N2CCN(CC[C@H](CSc3ccccc3)Nc3ccc(S(=O)(=O)NC(=O)c4ccc(N5CCN(CC6=C(c7ccc(Cl)cc7)CCC(C)(C)C6)CC5)cc4)cc3S(=O)(=O)C(F)(F)F)CC2)c1 [I-92] | > 75 | 100 to 500 | – | –
6 | Cc1ncsc1-c1ccc([C@H](C)NC(=O)[C@@H]2C[C@@H](O)CN2C(=O)[C@@H](NC(=O)CCc2cccc(F)c2OCCCc2sc(N3CCc4cccc(C(=O)Nc5nc6ccccc6s5)c4C3)nc2C(=O)O)C(C)(C)C)cc1 [I-30] | < 50 | > 1000 | – | –
7 | Cc1cc(N(CCN(C)C(=O)CCCC(=O)N[C@H](C(=O)N2C[C@H](O)C[C@H]2C(=O)N[C@@H](C)c2ccc(-c3scnc3C)cc2)C(C)(C)C)c2ccc(-c3cnn(CC4CCCCC4)c3C)c(C(=O)O)n2)nnc1Nc1nc2ccccc2s1 [I-99] | 50 to 75 | > 1000 | – | –
8 | Cc1cc(N(CCN(C)C(=O)CCCCCC(=O)N[C@H](C(=O)N2C[C@H](O)C[C@H]2C(=O)N[C@@H](C)c2ccc(-c3scnc3C)cc2)C(C)(C)C)c2ccc(-c3cnn(CC4CCCCC4)c3C)c(C(=O)O)n2)nnc1Nc1nc2ccccc2s1 [I-100] | 50 to 75 | 100 to 500 | – | –
9 | Cc1ncsc1-c1ccc(CNC(=O)[C@@H]2C[C@@H](O)CN2C(=O)C(c2cc(OCCCC(=O)N3CCN(CC[C@H](CSc4ccccc4)Nc4ccc(S(=O)(=O)NC(=O)c5ccc(N6CCN(CC7=C(c8ccc(Cl)cc8)CCC(C)(C)C7)CC6)cc5)cc4S(=O)(=O)C(F)(F)F)CC3)no2)C(C)C)cc1 (stereo partly drawn) [I-38] | 50 to 75 | 100 to 500 | – | –
10 | Cc1ncsc1-c1ccc([C@H](C)NC(=O)[C@@H]2C[C@@H](O)CN2C(=O)[C@@H](NC(=O)CCc2ccc(S(=O)(=O)NC(=O)c3ccc(N4CCN(CC5=C(c6ccc(Cl)cc6)CCC(C)(C)C5)CC4)cc3)cc2)C(C)(C)C)cc1 [I-124] | < 50 | > 1000 | – | –
11 | Cc1ncsc1-c1ccc([C@H](C)NC(=O)[C@@H]2C[C@@H](O)CN2C(=O)[C@@H](NC(=O)CCCC(=O)N(C)CC#Cc2ccc(OCCCc3sc(N4CCc5cccc(C(=O)Nc6nc7ccccc7s6)c5C4)nc3C(=O)O)c(F)c2)C(C)(C)C)cc1 [I-2] | > 75 | 100 to 500 | – | –
12 | Cc1ncsc1-c1ccc(CNC(=O)[C@@H]2C[C@@H](O)CN2C(=O)[C@@H](NC(=O)C2(F)CC2)C(C)(C)C)c(OCCCCCC(=O)N(C)CC#Cc2cccc(F)c2OCCCc2sc(N3CCc4cccc(C(=O)Nc5nc6ccccc6s5)c4C3)nc2C(=O)O)c1 [I-19] | < 50 | > 1000 | – | –
13 | Cc1ncsc1-c1ccc(CNC(=O)[C@@H]2C[C@@H](O)CN2C(=O)[C@@H](NC(=O)C2(F)CC2)C(C)(C)C)c(OCCCC(=O)N(C)CCCc2cccc(F)c2OCCCc2sc(N3CCc4cccc(C(=O)Nc5nc6ccccc6s5)c4C3)nc2C(=O)O)c1 [I-12] | 50 to 75 | 500 to 1000 | – | –
14 | Cc1ncsc1-c1ccc([C@H](C)NC(=O)[C@@H]2C[C@@H](O)CN2C(=O)[C@@H](NC(=O)CCCCCC(=O)N(C)CC#Cc2ccc(OCCCc3sc(N4CCc5cccc(C(=O)Nc6nc7ccccc7s6)c5C4)nc3C(=O)O)c(F)c2)C(C)(C)C)cc1 [I-3] | > 75 | 10 to 100 | – | –

Further lines, results first:

Row | Dmax (BCL-XL [1]) [%] | DC50 (BCL-XL [1]) [nM] | Dmax (BCL-XL [2]) [%] | DC50 (BCL-XL [2]) [nM] | SMILES
15 | – | – | 50 to 75 | 100 to 500 | Cc1ncsc1-c1ccc([C@H](C)NC(=O)[C@@H]2C[C@@H](O)CN2C(=O)[C@@H](NC(=O)N2CCC(N3CCC(S(=O)(=O)NC(=O)c4nc(N5CCc6cccc(C(=O)Nc7nc8ccccc8s7)c6C5)ccc4-c4cnn(CC5CCCCC5)c4C)CC3)CC2)C(C)(C)C)cc1 [I-258]
16 | – | – | > 75 | < 10 | Cc1cc([C@@H](C(=O)N2C[C@H](O)C[C@H]2C(=O)NCc2ccc(-c3scnc3C)cc2OCCCN2CCN(C(=O)c3nc(N4CCc5cccc(C(=O)Nc6nc7ccccc7s6)c5C4)ccc3-c3cnn(CC4CCCCC4)c3C)CC2)C(C)C)on1 [I-268]
17 | – | – | 50 to 75 | 100 to 500 | Cc1cc(C(C(=O)N2C[C@H](O)C[C@H]2C(=O)NCc2ccc(-c3scnc3C)cc2OCCN2CCN(CC[C@H](CSc3ccccc3)Nc3ccc(S(=O)(=O)NC(=O)c4ccc(N5CCN(CC6=C(c7ccc(Cl)cc7)CCC(C)(C)C6)CC5)cc4)cc3S(=O)(=O)C(F)(F)F)CC2)C(C)C)on1 (stereo partly drawn) [I-282]
18 | – | – | > 75 | 10 to 100 | Cc1cc(N(C)c2ccc(-c3cnn(CC4CCCCC4)c3C)c(C(=O)NS(=O)(=O)c3ccc(N4CCC(C(=O)N[C@H](C(=O)N5C[C@H](O)C[C@H]5C(=O)N[C@@H](C)c5ccc(-c6scnc6C)cc5)C(C)(C)C)CC4)cc3)n2)nnc1Nc1nc2ccccc2s1 [I-244]
19 | – | – | > 75 | 10 to 100 | Cc1ncsc1-c1ccc(CNC(=O)[C@@H]2C[C@@H](O)CN2C(=O)[C@@H](NC(=O)C2CCN(c3ccc(S(=O)(=O)NC(=O)c4nc(N5CCc6cccc(C(=O)Nc7nc8ccccc8s7)c6C5)ccc4-c4cnn(CC5CCCCC5)c4C)cc3)CC2)C(C)(C)C)cc1 [I-252]
20 | – | – | < 50 | – | Cc1ncsc1-c1ccc([C@H](C)NC(=O)[C@@H]2C[C@@H](O)CN2C(=O)C(c2cc(OC3CCN(c4ccc(S(=O)(=O)NC(=O)c5nc(N6CCc7cccc(C(=O)Nc8nc9ccccc9s8)c7C6)ccc5-c5cnn(CC6CCCCC6)c5C)cc4)CC3)no2)C(C)C)cc1 (stereo partly drawn) [I-231]
21 | – | – | 50 to 75 | 10 to 100 | Cc1ncsc1-c1ccc([C@H](C)NC(=O)[C@@H]2C[C@@H](O)CN2C(=O)[C@@H](NC(=O)C2CCN(c3ccc(S(=O)(=O)NC(=O)c4nc(N5CCc6cccc(C(=O)Nc7nc8ccccc8s7)c6C5)ccc4-c4cnn(CC5CCCCC5)c4C)cc3Cl)CC2)C(C)(C)C)cc1 [I-274]
22 | – | – | < 50 | – | Cc1ncsc1-c1ccc([C@H](C)NC(=O)[C@@H]2C[C@@H](O)CN2C(=O)C(c2cc(N3CCC(CN4CCC(NC(=O)c5nc(N6CCc7cccc(C(=O)Nc8nc9ccccc9s8)c7C6)ccc5-c5cnn(CC6CCCCC6)c5C)CC4)CC3)no2)C(C)C)cc1 (stereo partly drawn) [I-238]
23 | – | – | < 50 | – | Cc1ncsc1-c1ccc([C@H](C)NC(=O)[C@@H]2C[C@@H](O)CN2C(=O)[C@H](c2cc(N3CC(N4CCC(NC(=O)c5nc(N6CCc7cccc(C(=O)Nc8nc9ccccc9s8)c7C6)ccc5-c5cnn(CC6CCCCC6)c5C)CC4)C3)no2)C(C)C)cc1 [I-235]
24 | – | – | > 75 | 10 to 100 | Cc1ncsc1-c1ccc([C@H](C)NC(=O)[C@@H]2C[C@@H](O)CN2C(=O)[C@@H](c2cc(OC3CN(CCCS(=O)(=O)NC(=O)c4nc(N5CCc6cccc(C(=O)Nc7nc8ccccc8s7)c6C5)ccc4-c4cnn(CC5CCCCC5)c4C)C3)no2)C(C)C)cc1 [I-271]
